Assay results as given in patent publication US10647677B2, “Analogues of hydroxychloroquine (HCQ) without retinal toxicity” (Inoviem Scientific, priority 2015, dated 2020).

Tests used:
[1] = system: C57Bl/6 mice, pulmonary vasculitis induced by immune complexes; assay: Pulmonary vasculitis induced by immune complexes: neutrophils in bronchoalveolar lavages (flow cytometry); format: in vivo; details: HCQ 10 mg/kg, CB137 10, 30 and 100 mg/kg, 4 hours after instillation, compared to control + (FIG. 5)
Description: Female C57Bl/6 strain mice from the Jackson Laboratory, 8-10 weeks old and weighing about 20 g, are used in all experiments. The mice are maintained at a temperature of 23° C.±1° C. with 12-hour light/dark cycle. Mice have access to water and food ad libitum and are housed at least one week before the beginning of any experiments.
A retro-orbital blood sampling was performed using capillaries containing heparin on mice anesthetized with isoflurane the day before the manipulation. The next day, the mice were anesthetized with a mixture of ketamine and xylasin (90 mg/kg and 125 mg/kg, respectively). The immune IgG complex is induced in the lungs by intratracheal instillation of 0.5 mg of anti-BSA rabbit antibody (MP Biomedicals, Strasbourg, France) and by the administration of 0.5 mg per mouse of BSA antigen in the caudal vein (Warner et al., 2001 and Warren et al., 1989). The specified treatment (PF-1355, CB137 or solvent alone) is administered enterally. The animals are euthanized 4 hours after intratracheal instillation.
The animals are euthanized 4 hours after the intratracheal instillation by a lethal injection of pentobarbital. A submandibular blood sample is taken. […] The total number of cells, excluding any residual red cells and dead cells stained with trypan blue, is determined under the light microscope on a Malassez cell. […]

retina of mice = assay: Determination of retinopathy: histological analysis of the retina; format: in vivo; details: HCQ 10 mg/kg or CB137 5, 10 and 15 mg/kg, 5 times weekly for 62 days (FIGS. 3 and 4)
Description: Histology: 7-week-old mice are injected with 10 mg/kg HCQ or 5, 10 and 15 mg/kg of the CB137 analog 5 times weekly for a period of 62 days. After assigning them a number, the mice are randomized according to their weight and treatment. The mice are divided in groups of 5 in cages, one mouse being treated with the carrier, one with HCQ 10 mg/kg, one with CB137 5 mg/kg, one with CB137 10 mg/kg and one with CB137 15 mg/Kg. The mice are housed in an environment maintained at a temperature of 22° C., 35-55% humidity and with 12-hour cycles of light/darkness.
At the end of the experiment, the mice are euthanized by cervical dislocation. The eyeballs are isolated and stored in a solution containing 4% paraformaldehyde, 5% glutaraldehyde and 0.1 M sodium cacodylate overnight at 4° C. The samples are washed, dehydrated and embedded in paraffin. The 4-μm retinal sections are stained with 1% toluidine blue followed by 1% methylene blue. The retinal toxicity of the samples is then determined by analysis of the sections under microscope.

myeloperoxidase (MPO) = biological target: T1, myeloperoxidase (MPO) (Homo sapiens, UniProt P05164); assay: Surface plasmon resonance (Biacore 3000) affinity on MPO; format: binding; details: SPR at 25° C.
T1 construct: purchased
T1 sequence (P05164 49-745): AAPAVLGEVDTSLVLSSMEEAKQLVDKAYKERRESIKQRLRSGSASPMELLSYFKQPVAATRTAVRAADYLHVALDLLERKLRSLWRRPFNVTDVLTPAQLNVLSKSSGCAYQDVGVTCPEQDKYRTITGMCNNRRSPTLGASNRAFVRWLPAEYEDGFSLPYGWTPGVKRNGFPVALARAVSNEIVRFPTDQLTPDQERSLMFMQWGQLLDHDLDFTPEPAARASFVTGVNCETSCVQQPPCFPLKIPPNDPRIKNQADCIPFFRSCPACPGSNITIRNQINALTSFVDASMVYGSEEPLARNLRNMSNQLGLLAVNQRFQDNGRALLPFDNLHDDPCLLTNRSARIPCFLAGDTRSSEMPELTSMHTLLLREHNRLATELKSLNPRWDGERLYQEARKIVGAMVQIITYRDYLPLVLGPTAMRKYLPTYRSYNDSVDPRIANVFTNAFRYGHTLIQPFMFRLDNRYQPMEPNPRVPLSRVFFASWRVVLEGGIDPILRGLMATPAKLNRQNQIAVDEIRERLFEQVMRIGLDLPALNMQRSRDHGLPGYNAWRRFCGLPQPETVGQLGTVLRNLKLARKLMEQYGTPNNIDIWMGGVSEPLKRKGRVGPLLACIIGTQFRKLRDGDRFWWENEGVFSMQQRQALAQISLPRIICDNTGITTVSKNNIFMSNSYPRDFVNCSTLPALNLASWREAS
Description: Using the surface plasmon resonance technology (Biacore 3000), the interaction constants between HCQ analogues (HCQa) and myeloperoxidase (MPO) targets and αB-crystalline (αB-C) were measured at 25° C. according to 12 different series of experiments. First, HCQ analogues at five different concentrations (10^−6 to 10^−8 M) were injected at a rate of 10^−6 L/min for 250 s on the MPO and αB-C targets as well as on the ERK1 and ERK2 controls, followed by a dissociation phase of 150 s.
The kinetic parameters were measured using the BIAevaluation 4.1 software. The set of resonance unit values obtained with the controls were subtracted from those obtained with MPO and αB-C to compensate for non-specific bonds.
The differences in Kd values for the myeloperoxidase (MPO) and αB-crystalline (αB-C) enzymes in Tables 1 and 2 are due to the variability of commercial batches. Nevertheless, the difference between the Kd of the compounds HCQ and CB137 remains identical according to these two tests.
Analysis of the compounds in the form of sulphate salts according to the method described above: […]

[2] = Table 2, compounds in the form of sulphate salts

| Structure (SMILES) | amount of neutrophils in bronchoalveolar lavages / lungs [1] | retinal lesions (histology) (retina of mice) | Kd (myeloperoxidase (MPO); Table 1) [nM] | Kd (myeloperoxidase (MPO); [2]) [nM] |
| --- | --- | --- | --- | --- |
| CCN(CCO)CCCC(C)Nc1c(Cl)cnc2cc(Cl)ccc12 (centres unmarked) [CB137] | decreases the amount of neutrophils | does not induce more lesions than in the control mice | 6.59 | 60 |
| CCN(CCO)CCCC(C)Nc1ccnc2cc(Cl)ccc12 (centres unmarked) [Commercial HCQ, hydroxychloroquine] | slightly increase the amount of neutrophils | induces retinal lesions | 710 | 4000 |
